Measurements reported in the NIST ThermoML archive (doi:10.1021/je201334p).
Numbers after ± are expanded uncertainties.

What was measured:
[1] = molar heat capacity at constant pressure; details: 101.33 kPa, Liquid, Small sample (50 mg) DSC
[2] = refractive index (Na D-line) (dimensionless); details: Liquid, Standard Abbe refractometry
[3] = 101 kPa, Liquid; for speed of sound: Sing-around technique in a fixed-path interferometer; for mass density: Vibrating tube method
[4] = refractive index (Na D-line) (dimensionless); xn = mol fraction of the nth substance listed; details: 101 kPa, Liquid, Standard Abbe refractometry, x1 = 1
[5] = xn = mol fraction of the nth substance listed; details: 308.15 K; 101 kPa; Liquid; Sing-around technique in a fixed-path interferometer; x1 = 1

Row | SMILES | molar heat capacity at constant pressure ([1]; 288.15 K) [J/K/mol] | molar heat capacity at constant pressure ([1]; 298.15 K) [J/K/mol] | molar heat capacity at constant pressure ([1]; 308.15 K) [J/K/mol] | refractive index ([2]; 288.15 K, 101 kPa) | refractive index ([2]; 288.15 K, 101.33 kPa) | refractive index ([2]; 298.15 K, 101 kPa) | refractive index ([2]; 298.15 K, 101.33 kPa) | refractive index ([2]; 308.15 K, 101 kPa) | refractive index ([2]; 308.15 K, 101.33 kPa) | speed of sound ([3]; 288.15 K) [m/s] | mass density ([3]; 288.15 K) [kg/m3] | speed of sound ([3]; 298.15 K) [m/s] | mass density ([3]; 298.15 K) [kg/m3] | speed of sound ([3]; 308.15 K) [m/s] | mass density ([3]; 308.15 K) [kg/m3] | refractive index ([4]; 288.15 K) | refractive index ([4]; 298.15 K) | refractive index ([4]; 308.15 K) | speed of sound [5] [m/s]
1 | CCCC[N+]1(C)CCCC1.N#CN=C=[N-] [1-butyl-1-methylpyrrolidinium dicyanamide] | 473 ± 9 | 502 ± 10 | 521 ± 10 | 1.49968 ± 0.00063 | 1.49968 ± 0.00063 | 1.49681 ± 0.00063 | 1.49681 ± 0.00063 | 1.49392 ± 0.00064 | 1.49392 ± 0.00064 | 1836.9 ± 2.3 | 1019.17 ± 1.1 | 1811.1 ± 2.3 | 1013.53 ± 1.1 | 1781.9 ± 2.3 | 1007.93 ± 1.1 | – | – | – | –
2 | O [water] + CCCC[N+]1(C)CCCC1.N#CN=C=[N-] | – | – | – | – | – | – | – | – | – | – | – | – | – | – | – | 1.33349 ± 0.00041 | 1.33255 ± 0.00042 | 1.33131 ± 0.00042 | 1522.3 ± 1
3 | O [water] + CCCC[n+]1cccc(C)c1.O=S(=O)([O-])C(F)(F)F | – | – | – | – | – | – | – | – | – | – | – | – | – | – | – | 1.33349 ± 0.00041 | 1.33255 ± 0.00042 | 1.33131 ± 0.00042 | 1522.3 ± 1
4 | CCCCn1cc[n+](C)c1.N#CN=C=[N-] [1-butyl-3-methylimidazolium dicyanamide] | 367 ± 7 | 376 ± 8 | 381 ± 8 | 1.51213 ± 0.00065 | 1.51213 ± 0.00065 | 1.50893 ± 0.00065 | 1.50893 ± 0.00065 | 1.50578 ± 0.00065 | 1.50578 ± 0.00065 | 1764.3 ± 2.3 | 1066.58 ± 1.3 | 1738.1 ± 2.3 | 1060.17 ± 1.2 | 1713.1 ± 2.3 | 1053.83 ± 1.2 | – | – | – | –
5 | O [water] + CCCCCCn1cc[n+](C)c1.N#CN=C=[N-] | – | – | – | – | – | – | – | – | – | – | – | – | – | – | – | 1.33349 ± 0.00041 | 1.33255 ± 0.00042 | 1.33131 ± 0.00042 | 1522.3 ± 1
6 | CCCCn1cc[n+](C)c1.O=S(=O)([O-])C(F)(F)F [1-butyl-3-methylimidazolium trifluoromethanesulfonate] | – | – | – | 1.44032 ± 0.00053 | 1.44032 ± 0.00053 | 1.43755 ± 0.00053 | 1.43755 ± 0.00053 | 1.43475 ± 0.00053 | 1.43475 ± 0.00053 | 1414.3 ± 1.4 | 1307.5 ± 0.63 | 1391.4 ± 1.4 | 1299.55 ± 0.62 | 1369.1 ± 1.4 | 1291.62 ± 0.61 | – | – | – | –
7 | O [water] + CCCC[N+]1(C)CCCC1.O=S(=O)([O-])C(F)(F)F | – | – | – | – | – | – | – | – | – | – | – | – | – | – | – | 1.33349 ± 0.00041 | 1.33255 ± 0.00042 | 1.33131 ± 0.00042 | 1522.3 ± 1
8 | O [water] + CCOS(=O)(=O)[O-].CCc1cccc[n+]1CC | – | – | – | – | – | – | – | – | – | – | – | – | – | – | – | 1.33349 ± 0.00041 | 1.33255 ± 0.00042 | 1.33131 ± 0.00042 | 1522.3 ± 1
9 | COS(=O)(=O)[O-].C[n+]1ccccc1 [1-methylpyridinium methylsulfate] | 288 ± 6 | 299 ± 6 | 305 ± 6 | 1.51603 ± 0.00052 | 1.51603 ± 0.00052 | 1.5134 ± 0.00052 | 1.5134 ± 0.00052 | 1.51077 ± 0.00052 | 1.51077 ± 0.00052 | 1901.1 ± 1.5 | 1352.86 ± 0.69 | 1875.8 ± 1.5 | 1346.12 ± 0.68 | 1852.4 ± 1.5 | 1339.37 ± 0.67 | – | – | – | –
10 | O [water] + COS(=O)(=O)[O-].C[n+]1ccccc1 | – | – | – | – | – | – | – | – | – | – | – | – | – | – | – | 1.33349 ± 0.00041 | 1.33255 ± 0.00042 | 1.33131 ± 0.00042 | 1522.3 ± 1
11 | CCOS(=O)(=O)[O-].CCc1cccc[n+]1CC [1,2-diethylpyridinium ethylsulfate] | 399 ± 8 | 412 ± 8 | 420 ± 8 | 1.51631 ± 0.00053 | 1.51631 ± 0.00053 | 1.5135 ± 0.00053 | 1.5135 ± 0.00053 | 1.51067 ± 0.00053 | 1.51067 ± 0.00053 | 1774.5 ± 1.5 | 1225.93 ± 0.54 | 1745.2 ± 1.5 | 1219.26 ± 0.53 | 1718.4 ± 1.5 | 1212.65 ± 0.52 | – | – | – | –
12 | CCCCCCn1cc[n+](C)c1.N#CN=C=[N-] [1-hexyl-3-methylimidazolium dicyanamide] | 510 ± 10 | 534 ± 11 | 548 ± 11 | 1.50729 ± 0.00079 | 1.50729 ± 0.00079 | 1.50415 ± 0.00079 | 1.50415 ± 0.00079 | 1.501 ± 0.00079 | 1.501 ± 0.00079 | 1713.4 ± 3.2 | 1034.76 ± 2.6 | 1687.7 ± 3.2 | 1028.56 ± 2.6 | 1662.7 ± 3.2 | 1022.4 ± 2.5 | – | – | – | –
13 | O [water] + CCCCn1cc[n+](C)c1.N#CN=C=[N-] | – | – | – | – | – | – | – | – | – | – | – | – | – | – | – | 1.33349 ± 0.00041 | 1.33255 ± 0.00042 | 1.33131 ± 0.00042 | 1522.3 ± 1
14 | CCCC[n+]1cccc(C)c1.O=S(=O)([O-])C(F)(F)F [1-butyl-3-methylpyridinium trifluoromethanesulfonate] | 496 ± 10 | 520 ± 10 | 535 ± 11 | 1.46446 ± 0.00053 | 1.46446 ± 0.00053 | 1.46155 ± 0.00053 | 1.46155 ± 0.00053 | 1.45868 ± 0.00053 | 1.45868 ± 0.00053 | 1436.1 ± 1.4 | 1287.07 ± 0.61 | 1412.3 ± 1.4 | 1279.41 ± 0.6 | 1389.6 ± 1.4 | 1271.8 ± 0.59 | – | – | – | –
15 | CCCC[N+]1(C)CCCC1.O=S(=O)([O-])C(F)(F)F [1-butyl-1-methylpyrrolidinium trifluoromethanesulfonate] | 424 ± 8 | 435 ± 9 | 441 ± 9 | 1.43557 ± 0.00052 | – | 1.43289 ± 0.00052 | – | 1.43018 ± 0.00052 | – | 1484.6 ± 1.4 | 1260.33 ± 0.58 | 1460.1 ± 1.4 | 1252.98 ± 0.57 | 1436.7 ± 1.4 | 1245.78 ± 0.56 | – | – | – | –
16 | O [water] + CCCCn1cc[n+](C)c1.O=S(=O)([O-])C(F)(F)F | – | – | – | – | – | – | – | – | – | – | – | – | – | – | – | 1.33349 ± 0.00041 | 1.33255 ± 0.00042 | 1.33131 ± 0.00042 | 1522.3 ± 1
